Experimental findings from publication PMC4399838, “Antipsychotic-Like Effect of the Muscarinic Acetylcholine Receptor Agonist BuTAC in Non-Human Primates” (PLoS ONE, 2015) are described below.

Data set [1] deals with antipsychotic-naïve Cebus Apella monkeys. Kind of data set: Side effects of BuTAC alone or with d-amphetamine. The data set is classed as in vivo. The procedure:
Seven male Cebus Apella monkeys were used for evaluation the anti-amphetamine effect and the side effect profile of BuTAC. These monkeys were never before administered antipsychotics and had never experienced EPS, but had previously been administered amphetamine. For further evaluation of the EPS potential of BuTAC, the compound was tested in four male and female monkeys, all sensitized to drug-induced EPS by earlier chronic treatment with classical antipsychotic drugs.
All monkeys received all treatments with at least one week between tests and thus served as their own control. To avoid extended physical contact with the experimenter, the cages were reduced in sized by moving the back wall of the cage closer to the front wall to lightly immobilize the monkey while injecting the test substance in the thigh. This was done at 9 am at test days. After the appropriate pre-treatment time, the monkeys were videotaped in their cages at predefined time points after drug injection.
The rated primate behaviours and symptoms were the following: unrest, stereotypy, arousal, sedation and bradykinesia (Table 1). All monkeys were videotaped in 90-sec. sessions at specific time points throughout the test sessions. The videotapes were rated for amphetamine-induced behaviours and EPS by two experienced raters blinded to the treatment of the animal by means of a rating scale adapted from Peacock et al. and previously described by Andersen et al. (Table 1). In case of any discrepancy between the two ratings, the recording in question was re-evaluated and a rating agreed upon. The monkeys were videotaped at t = 30, 60, 90, 135, 150, 165, 180, 240, 300 min after BuTAC (or vehicle) administration. For the combination studies, d-amphetamine was injected at t = 120 min. Oral dyskinesia was measured in counts per 90 sec. The severity of other behaviours and symptoms were rated on a scale ranging from 0 (not present) to 6 (extreme presence).
For evaluation of anti-amphetamine effects, BuTAC was tested in doses of 0.001, 0.003, 0.01 mg/kg in combination with 0.5 mg/kg of d-amphetamine. BuTAC or peanut oil vehicle was injected s.c. at approximately 9 a.m. Pre-treatment time before s.c. injection of amphetamine was 120 min. For evaluation of side effects, BuTAC was tested alone at doses of 0.001, 0.003 and 0.01 mg/kg in antipsychotic-naïve monkeys and at doses of 0.003 and 0.01 mg/kg in monkeys sensitized to extrapyramidal side effects (EPS) by earlier long-term treatment with first generation antipsychotics. […] None of the animals were sacrificed.
Data from the experiments where BuTAC was administered alone collected at t = 60, 180, 300 min are presented. For the d-amphetamine / BuTAC study, data collected at t(amp) = 60, 120 and 180 min (t = 180, 240, 300 min) are reported. Data were analyzed for overall treatment effects at each time point by means of the non-parametric Friedman’s test for repeated measures. The Student Newman-Keuls comparison procedure was used to analyze for specific dose effects. For all tests, the accepted level of significance was p<0.05.

The test system of another data set is monkeys. Kind of data set: BuTAC-induced emesis and its inhibition by domperidone. The data set is classed as in vivo, Cebus Apella. As to conditions: BuTAC 0.01 mg/kg alone; observed 300 minutes. Here is the method:
S1 Table. Emesis BuTAC / Domperidone
BuTAC 0.01 mg/kg / 1 in 7
Domperidone was purchased from Tocris Bioscience (Bristol, United Kingdom) and dissolved
in 0.9% saline. The compound was administered subcutaneously where after the animals

A further data set deals with T1, M1AChR (Homo sapiens, UniProt P11229).
T1 sequence (P11229 1-460): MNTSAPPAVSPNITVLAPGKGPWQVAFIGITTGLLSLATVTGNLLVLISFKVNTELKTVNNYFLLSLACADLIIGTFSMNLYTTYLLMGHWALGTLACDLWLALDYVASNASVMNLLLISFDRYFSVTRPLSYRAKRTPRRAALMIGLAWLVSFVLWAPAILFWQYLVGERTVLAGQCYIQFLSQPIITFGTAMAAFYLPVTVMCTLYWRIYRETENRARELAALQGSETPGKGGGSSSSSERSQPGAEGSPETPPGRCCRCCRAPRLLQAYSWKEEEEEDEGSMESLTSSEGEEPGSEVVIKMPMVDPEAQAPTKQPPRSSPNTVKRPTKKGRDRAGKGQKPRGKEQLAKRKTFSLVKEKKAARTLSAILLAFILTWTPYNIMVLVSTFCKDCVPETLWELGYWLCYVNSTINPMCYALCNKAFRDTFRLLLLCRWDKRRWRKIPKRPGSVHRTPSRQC
Description: Competitive radioligand binding.

For a further data set, the target named is T2, M2AChR (Homo sapiens, UniProt P08172).
T2 sequence (P08172 1-466): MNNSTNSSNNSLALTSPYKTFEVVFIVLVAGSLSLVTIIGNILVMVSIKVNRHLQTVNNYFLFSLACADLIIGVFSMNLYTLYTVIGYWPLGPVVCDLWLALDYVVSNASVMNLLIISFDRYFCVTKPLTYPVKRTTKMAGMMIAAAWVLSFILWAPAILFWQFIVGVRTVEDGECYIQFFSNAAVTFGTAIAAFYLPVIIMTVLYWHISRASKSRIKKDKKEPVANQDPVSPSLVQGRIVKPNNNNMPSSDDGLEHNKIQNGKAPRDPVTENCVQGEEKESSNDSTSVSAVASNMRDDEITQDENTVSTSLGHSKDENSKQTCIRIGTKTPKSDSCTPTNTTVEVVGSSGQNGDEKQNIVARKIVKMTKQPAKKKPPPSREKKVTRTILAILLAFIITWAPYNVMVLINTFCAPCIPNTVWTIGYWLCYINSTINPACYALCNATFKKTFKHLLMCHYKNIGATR
Kind of data set: Competitive radioligand binding.

Another data set addresses M3AChR (Homo sapiens, UniProt P20309). Description: Competitive radioligand binding.
Setting [2] is: BuTAC 0.001 mg/kg / d-amphetamine 0.5 mg/kg.
The mark [3] stands for this setting: BuTAC alone 0.001, 0.003, 0.01 mg/kg.

Chain of M3AChR (P20309 whole entry): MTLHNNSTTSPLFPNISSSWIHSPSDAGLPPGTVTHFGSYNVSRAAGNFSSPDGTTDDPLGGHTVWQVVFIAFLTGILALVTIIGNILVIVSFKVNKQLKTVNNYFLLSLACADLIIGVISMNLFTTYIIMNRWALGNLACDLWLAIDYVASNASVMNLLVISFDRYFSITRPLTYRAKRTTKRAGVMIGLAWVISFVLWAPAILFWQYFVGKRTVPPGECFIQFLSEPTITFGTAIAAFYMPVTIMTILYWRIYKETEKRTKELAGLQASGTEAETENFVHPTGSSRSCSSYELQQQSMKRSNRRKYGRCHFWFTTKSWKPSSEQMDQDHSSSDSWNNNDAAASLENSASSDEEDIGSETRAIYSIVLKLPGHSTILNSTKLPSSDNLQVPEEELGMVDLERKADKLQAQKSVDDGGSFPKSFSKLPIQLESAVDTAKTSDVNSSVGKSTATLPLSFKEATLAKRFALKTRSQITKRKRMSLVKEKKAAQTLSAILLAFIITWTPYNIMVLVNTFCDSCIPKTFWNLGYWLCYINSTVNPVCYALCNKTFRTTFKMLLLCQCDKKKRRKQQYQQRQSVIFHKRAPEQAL

As for `CCCCSc1nsnc1[C@H]1CN2CCC[C@H]1C2` [BuTAC, (5R,6R)-6-(3-butylthio-1,2,5-thiadiazol-4-yl)-1-azabicyclo[3.2.1]octane], in data set [1] (setting [2]), the “Emetic events (vomiting) (monkeys affected)” value was 0. In addition, the “Sedation 2 ≤ X ≤ 5 (monkeys affected)” value in data set [1] (setting [2]), in data set [1] (BuTAC 0.001 mg/kg / vehicle), in data set [1] (BuTAC 0.003 mg/kg / d-amphetamine 0.5 mg/kg) and in data set [1] (BuTAC 0.01 mg/kg / d-amphetamine 0.5 mg/kg) was 0 in each case. Besides, the “Salivation (monkeys affected)” value in data set [1] (BuTAC 0.001 mg/kg / vehicle) and in data set [1] (BuTAC 0.003 mg/kg / vehicle) was 0 throughout. Also, the “Muscular relaxation (monkeys affected)” value was “all monkeys” in data set [1] (BuTAC 0.01 mg/kg (footnote of Table 3)); “one” in data set [1] (BuTAC 0.001 and 0.003 mg/kg (footnote of Table 3)); “Six” in data set [1] (BuTAC 0.003 and 0.01 mg/kg combined with d-amphetamine). In addition, the “Unrest (rating 0–6)” value in data set [1] (BuTAC alone 0.01 mg/kg, after 180 and 300 min, p<0.05) is “decrease in unrest”. Also, in data set [1] (BuTAC alone 0.01 mg/kg, all three test times, p<0.05 relative to vehicle), the “Sedation (rating 0–6)” value is “produced sedation”. Also, the Arousal result in data set [1] (setting [3]) is “no significant effect”. In addition, the “Stereotypies, oral dyskinesia, bradykinesia or dystonia” value in data set [1] (setting [3]) is on record as “not observed”. In addition, the “Sedation, oral dyskinesia, bradykinesia or dystonia” value in data set [1] (BuTAC and d-amphetamine) was “not observed”. Moreover, the EPS result in data set [1] (EPS naive monkeys) is given as “did not induce EPS”. In addition, the “Emetic events (vomiting), monkeys with emesis” value with monkeys is reported as 7/7.

In the case of `CCCSc1nsnc1[C@H]1CN2CCC[C@H]1C2` [PTAC, (5R,6R) 6-(3-propylthio-1,2,5-thiadiazol-4-yl)-1-azabicyclo-[3.2.1]-octane], the Ki on M1AChR was 1.05 nM; at M2AChR, 3.8 nM; on M3AChR, 0.398 nM.
